Measurements reported in BindingDB's records for patent US20230312550 (Astrazeneca, 2023).

Target: T1, Prolyl endopeptidase FAP (Homo sapiens, UniProt Q12884)
T1 sequence (Q12884 whole entry): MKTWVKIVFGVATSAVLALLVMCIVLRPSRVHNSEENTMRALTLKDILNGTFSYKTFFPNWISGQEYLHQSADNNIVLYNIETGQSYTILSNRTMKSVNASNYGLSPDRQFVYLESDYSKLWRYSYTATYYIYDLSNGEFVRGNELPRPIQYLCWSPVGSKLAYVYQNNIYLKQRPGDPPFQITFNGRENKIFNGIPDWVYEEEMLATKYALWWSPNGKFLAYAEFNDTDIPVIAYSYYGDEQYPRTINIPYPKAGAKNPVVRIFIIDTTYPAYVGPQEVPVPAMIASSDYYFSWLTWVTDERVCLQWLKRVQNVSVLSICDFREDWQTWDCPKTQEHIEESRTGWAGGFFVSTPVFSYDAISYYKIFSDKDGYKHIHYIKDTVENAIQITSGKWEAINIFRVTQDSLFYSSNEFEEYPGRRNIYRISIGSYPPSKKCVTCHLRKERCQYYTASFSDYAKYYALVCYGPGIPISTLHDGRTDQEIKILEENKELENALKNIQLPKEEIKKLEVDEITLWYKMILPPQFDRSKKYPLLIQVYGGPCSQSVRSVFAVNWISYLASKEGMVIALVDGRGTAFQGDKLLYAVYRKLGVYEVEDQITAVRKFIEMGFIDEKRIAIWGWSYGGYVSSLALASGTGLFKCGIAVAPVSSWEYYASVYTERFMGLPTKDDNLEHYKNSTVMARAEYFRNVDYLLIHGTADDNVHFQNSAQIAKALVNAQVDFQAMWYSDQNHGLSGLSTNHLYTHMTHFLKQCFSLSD
Experiment: hFAP Binding Assay
Conditions: not given

Structure (SMILES)	koff
C[C@@H]1COC[C@H](C)N1c1cc2c(C(=O)NCC(=O)N3CSC[C@H]3C#N)ccnc2cc1Br [US20230312550, Example 100]	0.0022 s⁻¹
Cc1cc(C(F)(F)F)nn1-c1ccc2nccc(C(=O)NCC(=O)N3CSC[C@H]3C#N)c2c1 [US20230312550, Example 116]	0.0012 s⁻¹
N#C[C@@H]1CSCN1C(=O)CNC(=O)c1ccnc2ccc(-n3ccc4c(F)cc(F)cc43)cc12 [US20230312550, Example 119]	0.00031 s⁻¹
Cc1ccn(-c2ccc3nccc(C(=O)NCC(=O)N4CSC[C@H]4C#N)c3c2)c1 [US20230312550, Example 121]	1.6e-05 s⁻¹
N#C[C@@H]1CSCN1C(=O)CNC(=O)c1ccnc2ccc(N3CC(N4CCOCC4)C3)cc12 [US20230312550, Example 122]	4.3e-05 s⁻¹
N#C[C@@H]1CSCN1C(=O)CNC(=O)c1ccnc2ccc(-c3ccnc(F)c3)cc12 [US20230312550, Example 124]	0.00028 s⁻¹
N#C[C@@H]1CSCN1C(=O)CNC(=O)c1ccnc2ccc(-c3ccc(F)cn3)cc12 [US20230312550, Example 125]	0.00014 s⁻¹
Cc1ncccc1-c1ccc2nccc(C(=O)NCC(=O)N3CSC[C@H]3C#N)c2c1 [US20230312550, Example 128]	0.00066 s⁻¹
CC1(C2CC2)CN(c2ccc3nccc(C(=O)NCC(=O)N4CSC[C@H]4C#N)c3c2)C1 [US20230312550, Example 134]	8e-05 s⁻¹
N#C[C@@H]1CSCN1C(=O)CNC(=O)c1ccnc2ccc(N3CC(OC(F)F)C3)cc12 [US20230312550, Example 136]	5e-05 s⁻¹

The remaining lines, values ahead:

koff	Structure (SMILES)
2.5e-05 s⁻¹	N#C[C@@H]1CSCN1C(=O)CNC(=O)c1ccnc2ccc(N3CCOCC3)c(Cl)c12 [US20230312550, Example 101]
0.0001 s⁻¹	C[C@H]1COC[C@H](C)N1c1ccc2nccc(C(=O)NCC(=O)N3CSC[C@H]3C#N)c2c1 [US20230312550, Example 103]
6.1e-05 s⁻¹	N#C[C@@H]1CSCN1C(=O)CNC(=O)c1ccnc2ccc(N3CCOCC34CCC4)cc12 [US20230312550, Example 104]
6.8e-05 s⁻¹	C[C@@H]1COC[C@@H](C)N1c1ccc2nccc(C(=O)NCC(=O)N3CSC[C@H]3C#N)c2c1 [US20230312550, Example 105]
0.00014 s⁻¹	CC[C@H]1COCCN1c1ccc2nccc(C(=O)NCC(=O)N3CSC[C@H]3C#N)c2c1 [US20230312550, Example 106]
4.5e-05 s⁻¹	N#C[C@@H]1CSCN1C(=O)CNC(=O)c1ccnc2ccc(N3CC(CF)C3)cc12 [US20230312550, Example 113]
0.00042 s⁻¹	CC1(C)Cc2c(-c3ccc4nccc(C(=O)NCC(=O)N5CSC[C@H]5C#N)c4c3)cnn2C1 [US20230312550, Example 123]
0.00021 s⁻¹	N#C[C@@H]1CSCN1C(=O)CNC(=O)c1ccnc2ccc(-c3cccnc3)cc12 [US20230312550, Example 126]
0.002 s⁻¹	N#C[C@@H]1CSCN1C(=O)CNC(=O)c1ccnc2ccc(-c3cncnc3)cc12 [US20230312550, Example 127]
0.00014 s⁻¹	CC1(CC(F)(F)F)CN(c2ccc3nccc(C(=O)NCC(=O)N4CSC[C@H]4C#N)c3c2)C1 [US20230312550, Example 131]
0.00014 s⁻¹	N#C[C@@H]1CSCN1C(=O)CNC(=O)c1ccnc2ccc(N3CC(OC(F)(F)F)C3)cc12 [US20230312550, Example 132]
7.3e-05 s⁻¹	CC1(CC(F)F)CN(c2ccc3nccc(C(=O)NCC(=O)N4CSC[C@H]4C#N)c3c2)C1 [US20230312550, Example 133]
2.3e-05 s⁻¹	CC1(C(F)F)CN(c2ccc3nccc(C(=O)NCC(=O)N4CSC[C@H]4C#N)c3c2)C1 [US20230312550, Example 135]
9.8e-05 s⁻¹	CCC1(C)CN(c2ccc3nccc(C(=O)NCC(=O)N4CSC[C@H]4C#N)c3c2)C1 [US20230312550, Example 137]
0.00016 s⁻¹	CC(F)(F)CC1CN(c2ccc3nccc(C(=O)NCC(=O)N4CSC[C@H]4C#N)c3c2)C1 [US20230312550, Example 140]

Same assay, conditions: read-out: kon (M-1-s-1)

Structure (SMILES)	kon
C[C@@H]1COC[C@H](C)N1c1cc2c(C(=O)NCC(=O)N3CSC[C@H]3C#N)ccnc2cc1Br [US20230312550, Example 100]	3e+06 M⁻¹ s⁻¹
Cc1cc(C(F)(F)F)nn1-c1ccc2nccc(C(=O)NCC(=O)N3CSC[C@H]3C#N)c2c1 [US20230312550, Example 116]	7.9e+06 M⁻¹ s⁻¹
N#C[C@@H]1CSCN1C(=O)CNC(=O)c1ccnc2ccc(-n3ccc4c(F)cc(F)cc43)cc12 [US20230312550, Example 119]	610000 M⁻¹ s⁻¹
Cc1ccn(-c2ccc3nccc(C(=O)NCC(=O)N4CSC[C@H]4C#N)c3c2)c1 [US20230312550, Example 121]	1.1e+06 M⁻¹ s⁻¹
N#C[C@@H]1CSCN1C(=O)CNC(=O)c1ccnc2ccc(N3CC(N4CCOCC4)C3)cc12 [US20230312550, Example 122]	1.3e+06 M⁻¹ s⁻¹
N#C[C@@H]1CSCN1C(=O)CNC(=O)c1ccnc2ccc(-c3ccnc(F)c3)cc12 [US20230312550, Example 124]	3e+06 M⁻¹ s⁻¹
N#C[C@@H]1CSCN1C(=O)CNC(=O)c1ccnc2ccc(-c3ccc(F)cn3)cc12 [US20230312550, Example 125]	3e+06 M⁻¹ s⁻¹
Cc1ncccc1-c1ccc2nccc(C(=O)NCC(=O)N3CSC[C@H]3C#N)c2c1 [US20230312550, Example 128]	5.4e+06 M⁻¹ s⁻¹
CC1(C2CC2)CN(c2ccc3nccc(C(=O)NCC(=O)N4CSC[C@H]4C#N)c3c2)C1 [US20230312550, Example 134]	620000 M⁻¹ s⁻¹
N#C[C@@H]1CSCN1C(=O)CNC(=O)c1ccnc2ccc(N3CC(OC(F)F)C3)cc12 [US20230312550, Example 136]	2e+06 M⁻¹ s⁻¹

More lines, now with the values ahead:

kon	Structure (SMILES)
740000 M⁻¹ s⁻¹	N#C[C@@H]1CSCN1C(=O)CNC(=O)c1ccnc2ccc(N3CCOCC3)c(Cl)c12 [US20230312550, Example 101]
3e+06 M⁻¹ s⁻¹	C[C@H]1COC[C@H](C)N1c1ccc2nccc(C(=O)NCC(=O)N3CSC[C@H]3C#N)c2c1 [US20230312550, Example 103]
3e+06 M⁻¹ s⁻¹	N#C[C@@H]1CSCN1C(=O)CNC(=O)c1ccnc2ccc(N3CCOCC34CCC4)cc12 [US20230312550, Example 104]
890000 M⁻¹ s⁻¹	C[C@@H]1COC[C@@H](C)N1c1ccc2nccc(C(=O)NCC(=O)N3CSC[C@H]3C#N)c2c1 [US20230312550, Example 105]
1.8e+06 M⁻¹ s⁻¹	CC[C@H]1COCCN1c1ccc2nccc(C(=O)NCC(=O)N3CSC[C@H]3C#N)c2c1 [US20230312550, Example 106]
1.5e+06 M⁻¹ s⁻¹	N#C[C@@H]1CSCN1C(=O)CNC(=O)c1ccnc2ccc(N3CC(CF)C3)cc12 [US20230312550, Example 113]
3e+06 M⁻¹ s⁻¹	CC1(C)Cc2c(-c3ccc4nccc(C(=O)NCC(=O)N5CSC[C@H]5C#N)c4c3)cnn2C1 [US20230312550, Example 123]
1.8e+06 M⁻¹ s⁻¹	N#C[C@@H]1CSCN1C(=O)CNC(=O)c1ccnc2ccc(-c3cccnc3)cc12 [US20230312550, Example 126]
6e+06 M⁻¹ s⁻¹	N#C[C@@H]1CSCN1C(=O)CNC(=O)c1ccnc2ccc(-c3cncnc3)cc12 [US20230312550, Example 127]
1.8e+06 M⁻¹ s⁻¹	CC1(CC(F)(F)F)CN(c2ccc3nccc(C(=O)NCC(=O)N4CSC[C@H]4C#N)c3c2)C1 [US20230312550, Example 131]
270000 M⁻¹ s⁻¹	N#C[C@@H]1CSCN1C(=O)CNC(=O)c1ccnc2ccc(N3CC(OC(F)(F)F)C3)cc12 [US20230312550, Example 132]
1.2e+06 M⁻¹ s⁻¹	CC1(CC(F)F)CN(c2ccc3nccc(C(=O)NCC(=O)N4CSC[C@H]4C#N)c3c2)C1 [US20230312550, Example 133]
1.7e+06 M⁻¹ s⁻¹	CC1(C(F)F)CN(c2ccc3nccc(C(=O)NCC(=O)N4CSC[C@H]4C#N)c3c2)C1 [US20230312550, Example 135]
9.5e+06 M⁻¹ s⁻¹	CCC1(C)CN(c2ccc3nccc(C(=O)NCC(=O)N4CSC[C@H]4C#N)c3c2)C1 [US20230312550, Example 137]
2.6e+06 M⁻¹ s⁻¹	CC(F)(F)CC1CN(c2ccc3nccc(C(=O)NCC(=O)N4CSC[C@H]4C#N)c3c2)C1 [US20230312550, Example 140]
